The results in this text go back to patent US20160219881A1, “HERBICIDALLY ACTIVE 2-HALOGEN-4-ALKYNYL-PHENYL-PYRAZOLIDINE-DIONE OR PYRROLIDINE-DIONE DERIVATIVES” (SYNGENTA LIMITED, priority 2013, published 2016).

Test [1] relates to Setaria faberi (SETFA). In words: Test 1A glasshouse assay, pre-emergence herbicidal activity. The conditions noted are these: 312 h, 250 g/ha, 13 days after application, read-out: Pre-Emergence Herbicidal Activity (% Phytotoxicity) SET FA. In kind it is in vivo. The method, then:
(§1) Seeds of a variety of test species are sown in standard soil (usually sandy soil) in pots. After cultivation for one day (pre-emergence) or after 8 days cultivation (post-emergence) under controlled conditions in a glasshouse (at 24/16° C., day/night; 14 hours light; 65% humidity), the plants are sprayed with an aqueous spray solution derived from the formulation of the technical active ingredient (compound) in acetone/water (50:50) solution containing 0.5% Tween 20 (polyoxyethylene sorbitan monolaurate, CAS RN 9005-64-5). The test plants are then grown under controlled conditions in a glasshouse (at 24/16° C., day/night; 14 hours light; 65% humidity) and watered twice daily. 13 days after application of the test compounds, for pre- and post-emergence, the test is evaluated visually for percentage phytotoxicity to each plant (where 100%=total damage to plant; 0%=no damage to plant).
(§2) Alopecurus myosuroides (ALOMY), Setaria faberi (SETFA), Echinochloa crus-galli (ECHCG), Amaranthus retroflexus (AMARE), and Abutilon theophasti Medik. (ABUTH, common English name “velvetleaf”). Of these, Alopecurus myosuroides (ALOMY), Setaria faberi (SETFA), and Echinochloa crus-galli (ECHCG) are grassy monocotyledonous weeds.

Test [2] concerns Abutilon theophasti Medik. (ABUTH). Described as above. In kind it is in vivo. Conditions: 312 h, 250 g/ha, 13 days after application, read-out: Pre-Emergence Herbicidal Activity (% Phytotoxicity) ABUTH. The method, then: as §1, §2
Test [3] relates to Amaranthus retroflexus (AMARE). The test is described as above. Format: in vivo. Conditions: 312 h, 250 g/ha, 13 days after application, read-out: Pre-Emergence Herbicidal Activity (% Phytotoxicity) AMARE. The method, then:
as §1, §2

Test [4] has as its system Setaria faberi (SETFA). In words: Test 1A glasshouse assay, post-emergence herbicidal activity. The conditions noted are these: 312 h, 13 days after application, read-out: Post-Emergence Herbicidal Activity (% Phytotoxicity) SET FA. Format: in vivo. The procedure: as §1, §2
Test [5] concerns Abutilon theophasti Medik. (ABUTH). The description is as above. In kind it is in vivo. The conditions noted are these: 312 h, 13 days after application, read-out: Post-Emergence Herbicidal Activity (% Phytotoxicity) ABUTH. The procedure:
as §1, §2

The test system of test [6] is Amaranthus retroflexus (AMARE). The description is as above. Format: in vivo. Conditions: 312 h, 13 days after application, read-out: Post-Emergence Herbicidal Activity (% Phytotoxicity) AMARE. The method, then:
as §1, §2

A further test relates to ZEAMX. In words: Biological Example 3 (Test 2 glasshouse assay), post-emergence herbicidal activity. In kind it is in vivo. The procedure:
(§3) Seeds of a variety of monocotyledonous and dicotyledonous test plants are sown in standard soil in pots. The plants are cultivated for one day (for pre-emergence) or for about 12 days (range=10-13 days) (for post-emergence) under controlled conditions in a glasshouse (warm climate species at 24/18° C., cool climate species at 20/16° C., both at day/night; 16 hours light; 65% humidity). An “instant formulation”, known as the “IF50”, containing 50 g/litre (i.e. 5% w/v) of the “technical” (i.e. unformulated) active ingredient is prepared by dissolving the active ingredient in a mixture of organic solvents and emulsifier, details of which are provided in the Table below. This IF50 is then mixed with a small, variable amount of acetone to aid dissolution, before addition of a 0.2% v/v aqueous solution of the adjuvant X-77 (which is a mixture of alkyl aryl polyoxyethylene glycols and free fatty acids in isopropanol, CAS Registry number 11097-66-8), as the aqueous diluent, to form an aqueous spray solution which contains a predetermined concentration of the active ingredient (which varies depending on the application rate of the active ingredient to the plants) and 0.2% v/v of the adjuvant X-77. This aqueous spray solution is then sprayed onto the plants, after one day's cultivation (for pre-emergence) or after about 12 days' cultivation (for post-emergence). The test plants are then grown on, in a glasshouse (greenhouse) under controlled conditions (at either 24/18° C. or 20/16° C. (day/night) as mentioned above; 16 hours light; 65% humidity) and are watered twice daily. Either 15 days after application of the test compound (15 DAA) (for post-emergence), or 20 days after application of the test compound (20 DAA) (for pre-emergence), the test plants are evaluated visually, and an assessed percentage phytotoxicity score is given for each compound application on each plant species (where 100%=total damage to plant; 0%=no damage to plant).

For the next test, the system named is POAAN. Described as above. Format: in vivo, Poa annua. The method, then: as §3
The test system of test [7] is Alopecurus myosuroides (ALOMY). In words: Test 1A glasshouse assay, pre-emergence herbicidal activity. Format: in vivo. Conditions: 312 h, 13 days after application, read-out: Pre-Emergence Herbicidal Activity (% Phytotoxicity) ALOMY. The method, then:
as §1, §2
(§4) Lolium perenne (LOLPE), Triticum aestivum (TRZAW, winter wheat), Alopecurus myosuroides (ALOMY), Echinochloa crus-galli (ECHCG), and Avena fatua (AVEFA). All these are grassy monocotyledonous weeds and/or (for wheat) grassy crops.

Test [8] concerns Winter Wheat (variety ‘Hereward’). In words: Test 1B glasshouse assay, post-emergence phytotoxicity on winter wheat. In kind it is in vivo. Conditions: Triticum aestivum, 312 h, 13 days after application, read-out: Post-Emergence Herbicidal Activity (% Phytotoxicity) Winter Wheat (variety ‘Hereward’). The method, then: Seeds of the Winter Wheat variety ‘Hereward’ were sown in standard soil (usually sandy soil) in pots. After 8 days cultivation under controlled conditions in a glasshouse (at 24/16° C., day/night; 14 hours light; 65% humidity), which is post-emergence, the plants were sprayed with an aqueous spray solution derived from the formulation of the technical active ingredient (compound) in acetone/water (50:50) solution containing 0.5% Tween 20 (polyoxyethylene sorbitan monolaurate, CAS RN 9005-64-5). The test plants were then grown on in a glasshouse under controlled conditions (at 24/16° C., day/night; 14 hours light; 65% humidity) and watered twice daily. 13 days after application of the test compounds, the test was evaluated visually for percentage phytotoxicity to each plant (where 100%=total damage to plant; 0%=no damage to plant).

The subject of the next test is Avena fatua (AVEFA). In words: Test 1A glasshouse assay, pre-emergence herbicidal activity. Format: in vivo. Conditions: 312 h, 13 days after application, read-out: Pre-Emergence Herbicidal Activity (% Phytotoxicity) AVEFA. The procedure: as §1, §4

As to `CC#Cc1cc(C)c(C2C(=O)N(C)N(C)C2=O)c(C)c1` [Compound A1], the inhibition at 250 g/ha came to 30% in the test on Setaria faberi (SETFA) [1]; 0% in test [2]; 0% in test [3]; 40% in the test with Setaria faberi (SETFA) [4]; 10% in test [5]; 0% in [6]. The inhibition at 250 g/ha in [7] turned out to be 0%. Besides, the “Post-Emergence Herbicidal Activity (Percentage Phytotoxicity) ZEAMX” value in the test with ZEAMX (30 g/ha (rate by row order)) came to 90%; in the test on ZEAMX (125 g/ha (rate by row order)) it was 100%. The “Post-Emergence Herbicidal Activity (Percentage Phytotoxicity) POAAN” value in the test on POAAN (30 g/ha (rate by row order)) was determined as 50%; in the test on POAAN (125 g/ha (rate by row order)), 80%.
Take `CC#Cc1cc(C)c(C2C(=O)N3CCCCCN3C2=O)c(C)c1` [Compound A23, 2-(2,6-dimethyl-4-prop-1-ynyl-phenyl)-6,7,8,9-tetrahydro-5H-pyrazolo[1,2-a]diazepine-1,3-dione]: the inhibition at 250 g/ha was 50% in the test on Setaria faberi (SETFA) [1]; 10% in test [2]; 80% in test [3]; 80% in the test with Setaria faberi (SETFA) [4]; 60% in test [5]; 30% in test [6]. Also, the inhibition at 250 g/ha in [7] is 90%. In addition, the “Post-Emergence Herbicidal Activity (Percentage Phytotoxicity) ZEAMX” value came to 0% in the test with ZEAMX (30 g/ha (rate by row order)) and 30% in the test with ZEAMX (125 g/ha (rate by row order)). In addition, the entries for the “Post-Emergence Herbicidal Activity (Percentage Phytotoxicity) POAAN” value in the test on POAAN (30 g/ha (rate by row order)) and in the test on POAAN (125 g/ha (rate by row order)) were 10% and 70%, respectively.
Regarding `CC#Cc1cc(C)c(C2C(=O)C(Cc3ccccn3)N(C)C2=O)c(C)c1` (stereo not shown) [Compound A50, 3-(2,6-dimethyl-4-prop-1-ynyl-phenyl)-1-methyl-5-(2-pyridylmethyl)pyrrolidine-2,4-dione], the inhibition at 15.625 g/ha in [8] (15.625 g/ha) is 30%. The inhibition at 62.5 g/ha was 70% in test [8] (62.5 g/ha), 70% in test [7] (62.5 g/ha) and 60% with Avena fatua (AVEFA) (62.5 g/ha). Moreover, the inhibition at 250 g/ha in test [8] (250 g/ha) came to 80%; in [7], 90%; with Avena fatua (AVEFA) (250 g/ha) it was 70%.
Turning to `CC#Cc1cc(C)c(-c2c(OC(=O)C(C)(C)C)n(C)n(C)c2=O)c(C)c1` [Compound P1], the inhibition at 250 g/ha came out at 100% in the test with Setaria faberi (SETFA) [1]; 10% in [2]; 10% in test [3]; 90% in the test with Setaria faberi (SETFA) [4]; 70% in test [5]; 20% in test [6]. Also, in test [7], the inhibition at 250 g/ha turned out to be 100%. For the same molecule, the inhibition at 30 g/ha turned out to be 70% in the test with Setaria faberi (SETFA) [4], 30% in [5] and 0% in test [6]. In addition, the entries for the “Post-Emergence Herbicidal Activity (Percentage Phytotoxicity) ZEAMX” value with ZEAMX (8 g/ha (rate by row order)), in the test with ZEAMX (30 g/ha (rate by row order)) and in the test on ZEAMX (125 g/ha (rate by row order)) were 60%, 70% and 100%, respectively. For the same molecule, the “Post-Emergence Herbicidal Activity (Percentage Phytotoxicity) POAAN” value with POAAN (8 g/ha (rate by row order)) came out at 0%; in the test with POAAN (30 g/ha (rate by row order)), 0%; in the test with POAAN (125 g/ha (rate by row order)), 70%.
For the molecule `CC#Cc1cc(C)c(-c2c(OC(=O)C(C)(C)C)n3n(c2=O)CCOCC3)c(C)c1` [Compound P4], the inhibition at 250 g/ha amounted to 100% in the test with Setaria faberi (SETFA) [1]; 80% in [2]; 100% in [3]; 100% in the test with Setaria faberi (SETFA) [4]; 70% in test [5]; 10% in [6]. The inhibition at 250 g/ha in test [7] came out at 100%. The inhibition at 30 g/ha in the test with Setaria faberi (SETFA) [4] worked out at 70%; in test [5], 70%; in [6], 0%. For the same molecule, the “Post-Emergence Herbicidal Activity (Percentage Phytotoxicity) ZEAMX” value in the test with ZEAMX (8 g/ha (rate by row order)) was 30%; in the test with ZEAMX (30 g/ha (rate by row order)), 90%; in the test on ZEAMX (125 g/ha (rate by row order)), 100%. The “Post-Emergence Herbicidal Activity (Percentage Phytotoxicity) POAAN” value with POAAN (8 g/ha (rate by row order)) came to 50%; in the test with POAAN (30 g/ha (rate by row order)) it was 70%; in the test on POAAN (125 g/ha (rate by row order)) it was 90%.
